Data on three molecules can be found in US9134325B2, “Resistance biomarkers for HDAC inhibitors” (Celgene Corporation, priority 2012, dated 2015).

Experiment [1] deals with class 1 HDACs 1 and 2. The settings on record: data from Bradner et al., FIG. 6; cited from earlier work.
Experiment [2] relates to SKOV3 NS cells. Description: Cell growth assay (Cell Titer-Glo) in SKOV3 cells expressing non-silencing control shRNA. The experiment is classed as cell-based. The settings on record: for IC50: romidepsin, 5 independent experiments. The procedure:
(§1) Sensitivity of cells to HDAC inhibitor treatment is expressed as their S-value (S), which is a dimensionless compound value generated by adding the values of IC50 and the growth rate (GR) at the maximum drug concentration used to determine the IC50. The term (maximum drug concentration/200) is added in the equation below to achieve equal weighting of the S-value for IC50 and GR. S=IC50+(GR+100)×(maximum drug concentration/200) See FIG. 1 for an example of an S value calculation and explanation of GR.
(§2) To determine cell growth IC50 and GR at a given drug concentration, growth was plotted against drug concentration as a percentage of the number of cells present at the beginning of the experiment. Cells were plated in 96-well plates and allowed to attach and grow overnight. The following day, the cells were treated with serial dilutions of test compound. The viable cells were measured at day 0 (24 hours after plating) and day 3 (72 hours after adding the tested compound) using Cell Titer-Glo. Growth was calculated compared to day 0.
(§3) The plot generated two key data, the IC50 value and the % growth at the highest tested compound concentration (GR). The highest concentration tested for romidepsin was 1000 nM.
Effect of knocking down TSPYL5 expression using shRNA on IC50, GR and S values of romidepsin treatment. SKOV3 cells expressing either TSPYL5 shRNA (SKOV3 TSPYL5 KD) or non-silencing control shRNA (SKOV3 NS) were created using lentiviral infection. Knockdown of TSPYL5 in SKOV3 TSPYL5 KD cells was verified using western blot and quantitative PCR. Expression of TSPYL5 in these cells was reduced by 70%. After selection of stable pools with puromycin, cells were treated with varying concentrations of romidepsin for determination of IC50, GR and S value. Data from 5 independent experiments are shown. SKOV3 TSPYL5 KD cells have lower IC50s, show […] growth rate (GR) and have thus smaller S values than SKOV3 NS cells, meaning these cells are more sensitive to treatment with romidepsin. The data are plotted in FIG. 5. Differences between the 2 lines are significant (paired t test).

Experiment [3] relates to cell line panel. Description: Cell line panel viability screen (Cell Titer-Glo), S-value. The experiment is classed as cell-based. The procedure: as §1, §2, §3
The IC50s in these experiments could range from 0-1000 nM. […] Growth at the highest drug concentration tested ranged from −100 to +100. For the calculation of the S-Value, 100 was added to the numerical value of the observed growth, so that only positive numbers were generated (after adding 100, the range was from 0-200). Since IC50s and growth at the maximum drug concentration tested have different numerical ranges (0-1000 as compared to 0-200), the value for growth inhibition was multiplied by the maximum drug concentration used/200. This means that in the example given, both IC50 and GR could contribute values of 0-1000 to the S-value.
A cell line panel viability screen was used to compare the effects of a 6 hour and 72 hour treatment with romidepsin across a wide variety of cell lines. […] The S-Value was computed for the 6 h treatment and ranged from 5 for the most sensitive cell lines to 2000 for the most resistant cell lines. To identify genes whose expression correlated with sensitivity to HDAC inhibitor treatment, we applied two way ANOVA to select genes that were correlated with sensitivity. […] The most overexpressed gene in the resistant subgroup, ABCB1 (Res/Sen=29.6) is known to cause resistance to romidepsin treatment. This approach identified novel genes that correlated with resistance and/or sensitivity to the HDAC inhibitors but not tissue origin.
A cell line panel viability screen was used to compare the effects of romidepsin across a wide variety of cell lines and is shown in FIG. 3.
(ATP-based viability assays read luminescence as a measure of living cells.)

For experiment [4], the system named is primary human tumors propagated in mice. Description: Clonogenic two-layer soft agar assay of primary patient tumor explants. The format is cell-based. The following applies: IC50 of clonogenic assay against TSPYL5 expression, FIG. 4. The procedure:
Primary human tumors were propagated in mice. Tumors were dissociated and their sensitivity to romidepsin was tested using a clonogenic assay.
The clonogenic assay was performed in a 24-well format according to a modified two-layer soft agar assay introduced by Hamburger & Salmon (Hamburger A W, Salmon S E. Primary bioassay of human tumor stem cells. Science 197:461 (1977)). Briefly, cells were seeded on a bottom layer of growth medium supplemented with 0.4% (w/v) agar. Cells were added in 0.2 ml of the same medium supplemented with 0.4% (w/v) agar. Test compounds were applied diluted in culture medium. Cultures were incubated at 37° C. and 7.5% CO2 in a humidified atmosphere for up to 21 days. After 4-21 days, colonies were counted and drug effect was expressed as percent colony formations compared to untreated controls.

For experiment [5], the system named is SKOV3 TSPYL5 KD cells. In words: Cell growth assay (Cell Titer-Glo) in SKOV3 cells expressing TSPYL5 shRNA. The format is cell-based. The procedure:
as §1, §2
The plot generated two key data, the IC50 value and the % growth at the highest tested compound concentration (GR). […]
Effect of knocking down TSPYL5 expression using shRNA on IC50, GR and S values of romidepsin treatment. […] Knockdown of TSPYL5 in SKOV3 TSPYL5 KD cells was verified using western blot and quantitative PCR. […]

The test system of experiment [6] is HDF TSPYL5 KD cells. In words: Cell growth assay in human dermal fibroblasts with TSPYL5 knockdown. The experiment is classed as cell-based. The settings on record: HDF TSPYL5 KD versus HDF NS, FIG. 8. From the text:
FIG. 8 depicts the effect of knockdown of TSPYL5 expression on sensitivity of HDF cells to romidepsin using shRNA, as measured by the effect of romidepsin treatment on IC50 (Panel A), growth rate (GR) (Panel B) and S value (Panel C). Sensitivity of TSPYL5 knockdown cells to romidepsin is increased as measured by S value and growth rate. HDF cells expressing either TSPYL5 shRNA (HDF TSPYL5 KD) or non-silencing control shRNA (HDF NS) were created using lentiviral infection. Knockdown of TSPYL5 in HDF TSPYL5 KD cells was verified using western blot and quantitative PCR. Expression of TSPYL5 in these cells was reduced by >70%. After selection of stable pools with puromycen, cells were treated with varying concentrations of romidepsin for determination of IC50, GR and S value. The data shown are means and standard deviations from 8 independent experiments. Panel A: Romidepsin IC50s for HDF TSPYL5 KD cells and HDF NS cells. Panel B: Romidepsin GR for HDF TSPYL5 KD cells and HDF NS cells. […]
To determine cell growth IC50 and GR at a given drug concentration, growth was plotted against drug concentration as a percentage of the number of cells present at the beginning of the experiment. […] The viable cells were measured at day 0 (24 hours after plating) and day 3 (72 hours after adding the tested compound) using Cell Titer-Glo. Growth was calculated compared to day 0.

The target of experiment [7] is T1, class 2 HDAC 6 (Homo sapiens, UniProt Q9UBN7).
T1 sequence (Q9UBN7 1-1215): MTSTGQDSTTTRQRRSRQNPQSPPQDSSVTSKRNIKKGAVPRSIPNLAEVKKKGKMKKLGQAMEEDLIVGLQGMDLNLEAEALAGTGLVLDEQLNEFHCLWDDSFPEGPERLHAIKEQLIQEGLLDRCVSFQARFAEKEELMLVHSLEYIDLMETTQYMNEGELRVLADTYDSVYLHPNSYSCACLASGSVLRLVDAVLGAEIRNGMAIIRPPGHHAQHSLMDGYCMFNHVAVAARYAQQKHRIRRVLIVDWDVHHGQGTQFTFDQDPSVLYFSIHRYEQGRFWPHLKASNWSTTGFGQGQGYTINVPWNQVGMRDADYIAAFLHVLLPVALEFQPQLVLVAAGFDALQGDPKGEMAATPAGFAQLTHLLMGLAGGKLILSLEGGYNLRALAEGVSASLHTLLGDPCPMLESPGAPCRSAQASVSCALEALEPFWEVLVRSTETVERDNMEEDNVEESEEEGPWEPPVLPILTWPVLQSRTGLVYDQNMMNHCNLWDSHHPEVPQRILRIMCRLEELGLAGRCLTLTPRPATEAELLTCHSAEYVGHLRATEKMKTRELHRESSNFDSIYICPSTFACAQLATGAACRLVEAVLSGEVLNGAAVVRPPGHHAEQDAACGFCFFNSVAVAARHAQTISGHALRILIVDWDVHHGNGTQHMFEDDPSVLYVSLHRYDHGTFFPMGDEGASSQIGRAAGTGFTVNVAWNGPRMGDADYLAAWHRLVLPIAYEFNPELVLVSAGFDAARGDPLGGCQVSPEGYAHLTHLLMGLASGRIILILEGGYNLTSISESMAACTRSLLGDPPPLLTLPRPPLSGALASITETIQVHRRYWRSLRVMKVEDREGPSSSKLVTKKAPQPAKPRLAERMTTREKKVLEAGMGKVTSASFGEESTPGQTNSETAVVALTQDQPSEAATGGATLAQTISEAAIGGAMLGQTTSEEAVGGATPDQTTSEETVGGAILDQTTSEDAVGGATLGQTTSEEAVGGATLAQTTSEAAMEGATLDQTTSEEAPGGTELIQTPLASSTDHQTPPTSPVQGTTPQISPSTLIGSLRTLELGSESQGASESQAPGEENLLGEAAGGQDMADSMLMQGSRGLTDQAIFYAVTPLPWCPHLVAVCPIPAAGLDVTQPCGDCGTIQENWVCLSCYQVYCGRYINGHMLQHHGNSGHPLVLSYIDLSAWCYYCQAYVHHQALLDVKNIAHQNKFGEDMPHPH
The settings on record: data from Bradner et al., FIG. 6; cited from earlier work.

Each structure is given as a SMILES string. Where “and” joins values, the source holds several entries; their conditions need not be identical. Identical values can stand only once.

`Nc1ccccc1NC(=O)c1ccc(CNC(=O)OCc2cccnc2)cc1` [entinostat]: the “Inhibition of class 1 HDACs 1 and 2” value in experiment [1] was “inhibit”.
In general, IC50 refers to the midpoint of a concentration-inhibition curve. As to `C/C=C1\NC(=O)[C@H]2CSSCC/C=C/[C@H](CC(=O)N[C@H](C(C)C)C(=O)N2)OC(=O)[C@H](C(C)C)NC1=O` [romidepsin], the IC50 in experiment [2] (Homo sapiens, SK-OV-3, SKOV3 NS (non-silencing control shRNA)) was 141 nM; in experiment [2] (SKOV3 NS (non-silencing control shRNA)), 136 nM and 139 nM and 98 nM and 162 nM; in experiment [3] (read-out: IC50 of cell growth) it was 97.3 nM. Besides, the S value was 291 and 253 and 256 and 230 and 243 in experiment [2] (SKOV3 NS, S=IC50+(GR+100)×(maximum drug concentration/200)); 156 and 115 and 105 and 112 and 135 in experiment [5] (S=IC50+(GR+100)×(maximum drug concentration/200)). For the same molecule, the “Sensitivity by tissue of origin” value in experiment [3] (6 h drug treatment, S value, FIG. 2B) is given as “blood cell lines show the greatest sensitivity”. In experiment [3] (6 h drug treatment, most sensitive to most resistant cell lines), the “S-value across cell lines” value is given as 4-2000. The “Sensitivity of cell lines” value in experiment [3] (72 hour treatment) is “majority of the tested cell lines showed sensitivity”. Besides, the “Sensitivity of cell lines expressing high levels of TSPYL5” value in experiment [3] (S value against TSPYL5 gene expression, FIG. 3) was “no cell line expressing high levels of TSPYL5 was sensitive”. In addition, the “Sensitivity of primary tumors with high TSPYL5 expression” value in experiment [4] is “resistant”. Moreover, the “Inhibition of class 1 HDACs 1 and 2” value in experiment [1] is “inhibit”. For the same molecule, the “GR (growth at the highest tested concentration)” value in experiment [5] (highest romidepsin concentration 1000 nM, relative to day 0) was −92.5% and −88.6% and −93.2% and −86.1% and −84.3%. The “Effect of TSPYL5 knockdown on sensitivity of HDF cells” value in experiment [6] is on record as “increases sensitivity”.
Take `O=C(CCCCCCC(=O)Nc1ccccc1)NO` [vorinostat]: the “Inhibition of class 2 HDAC 6” value in experiment [7] was “inhibit”.
